Source: patent US20210340502A1, “Generation of Post-Mitotic Migratory Cortical Interneurons” (The McLean Hospital Corporation, priority 2018, published 2021)
“Also recorded” adds a separate entry of the source.

Assays:
H9 cINs = test: Cryopreservation of cINs with Trehalose in freezing media; assay type: cell-based, human
Experimental: For cryopreservation, the trypsinized cells were resuspended in freezing media (FBS with 10% DMSO) with or without 100 mM Trehalose and were frozen slowly overnight in an insulated container at −80° C. deep freezer. After 24 hours, the stocks were moved to liquid nitrogen storage until further experiments. Frozen stocks were thawed quickly in a 37° C. water bath, transferred to 15 ml conical tubes with 5 ml media, centrifuged and resuspended in B27GB media with ROCK inhibitor for plating and further experiments.

cIN organoids = test: Passaging of cIN organoids with Trehalose; assay type: cell-based, human
Experimental: For passaging cINs, cells were trypsinized by 0.05% trypsin (Thermo Fisher, Waltham, Mass., USA) supplemented with or without 10 mM Trehalose (Sigma-Aldrich, Natick, Mass., USA). After 5 minutes' incubation at 37° C., the spheres were triturated to dissociate the spheres. An equal volume of DMEM media with 10% FBS (Hyclone, Marlborough, Mass., USA) was added to neutralize Trypsin. In addition, Turbo DNase (2 U/ml, Thermo Fisher, Waltham, Mass., USA) was added to help clear released DNAs from culture. The cells were then kept in the incubator for additional 15 min to remove any sticky DNA mass released during trituration. After incubation, the cells were centrifuged and resuspended by B27GB media with ROCK inhibitor. To exclude the dead cell cluster, the resuspended cells were filtered through a cell strainer cap (35 μm nylon mesh, Corning, N.Y., USA), and plated onto a PLO/FN-coated surface (Poly-L-Ornithine, 15 ug/ml, Sigma-Aldrich, Natick; Fibronectin, 10 ug/ml, Thermo Fisher, Waltham, Mass., USA) for the subsequent experiments.

MGE progenitors = test: KI67+ proliferating MGE progenitors after chemical treatment (immunocytochemistry and cell counting); assay type: cell-based; conditions: for proportion of proliferating MGE progenitors (in words): 3 week-old MGE progenitors treated for a week; for Percentage of proliferating cells (Average ± SEM, N): KI67+ cells, 3 week-old MGE progenitors treated 1 week, 20 μM FdU, 1% CultureOne, 10 mM DAPT, 2 μM PD0332991 or combination (CDP)
Experimental: For chemical treatment of cINs, the differentiated progenitors were seeded on PLO/FN-coated surface at 3 weeks after differentiation, and cultured in B27GB media without or with each chemical, 20 μM FdU (Sigma-Aldrich, Natick, Mass., USA), 1% CultureOne (C, Thermo Fisher, Waltham, Mass., USA), […] (D, Sigma-Aldrich, Natick, Mass., USA), and 2 μM PD0332991 (P, Sigma-Aldrich, Natick, Mass., US), or with combination of CultureOne, DAPT and PD0332991 (CDP) for the time period designated in each Figure.
Immunocytochemistry and cell counting. cINs on coverslips were fixed using 4% paraformaldehyde (PFA, Electron Microscopy Sciences, Hatfield, Pa.) for 15 min, washed with PBS and used for staining. The spheres at different differentiation stages were fixed by 4% PFA for 15 min, rinsed with PBS, cryo-protected in the 30% sucrose (Thermo Fisher, Waltham, Mass., USA) overnight at 4° C., mounted on the chuck using the O.C.T. Compound (Thermo Fisher, Waltham, Mass., USA) and cryosectioned at 40 μm using a Leica CM1850 cryostat (Leica Biosystem, Buffalo Grove, Ill., USA). Fixed cells or sphere sections were incubated with blocking/permeablization buffer (PBS with 10% normal serum and 0.1% Triton X-100) for 10 min. The samples were then incubated in primary antibodies in antibody dilution buffer (PBS containing 2% normal serum) overnight at 4° C. After washing with PBS, cells were incubated with fluorescently labeled secondary antibodies and DAPI (Invitrogen, Waltham, Mass., USA)) in antibody dilution buffer for 1 h at room temperature. Following the PBS wash, the samples were mounted with Fluoromount-G (SouthernBiotech, Birmingham, Ala., USA).
For cell counting, multi point function in Image J software (Version 1.51 p, NIH, Bethesda, Md., USA) was used. Percentage of positive cells for each marker was calculated by dividing by DAPI-stained total nuclei number from at least 3 separate biological replicates. For each staining, a total of at least 500 cells were counted for each group.

Compound	survival of cryopreserved cINs after freeze-thaw (H9 cINs; 100 mM Trehalose in freezing media)	cIN phenotypes after freeze-thaw (H9 cINs; SOX6, GAD, β-TUBLIN three weeks after thawing)	viability during cryopreservation (H9 cINs; optimized condition, compared to the cINs passaged without cryopreservation) [%]	survival rate during passaging (cIN organoids; 6 weeks after differentiation, 10 mM Trehalose in trypsin)	increase in survival rate during passaging (cIN organoids; older organoids, after six months' differentiation)	proportion of proliferating MGE progenitors (in words) (MGE progenitors)	Percentage of proliferating cells (Average ± SEM, N) (MGE progenitors)
OC[C@H]1O[C@H](O[C@H]2O[C@H](CO)[C@@H](O)[C@H](O)[C@H]2O)[C@H](O)[C@@H](O)[C@@H]1O [Trehalose]	significantly increased survival	without affecting their phenotypes	65.27±8.97	significantly increased the survival rate	much more pronounced		
O=c1[nH]c(=O)n([C@H]2C[C@H](O)[C@@H](CO)O2)cc1F [FdU, 5-fluoro-2′-deoxyuridine]						did not influence the proportion of proliferating MGE progenitors; also recorded: not effective in reducing immature proliferating cell numbers	31.719 ± 1.486, 4%
C[C@H](NC(=O)Cc1cc(F)cc(F)c1)C(=O)N[C@H](C(=O)OC(C)(C)C)c1ccccc1 [DAPT]						significantly reduced the proportion of proliferating progenitors; also recorded: worked well to control cell cycle exit of MGE cells	8.835 ± 1.618, 4%
CC(=O)c1c(C)c2cnc(Nc3ccc(N4CCNCC4)cn3)nc2n(C2CCCC2)c1=O [PD0332991]						significantly reduced the proportion of proliferating progenitors; also recorded: effective in regulating MGE cell cycle exit	5.160 ± 1.042, 4%
